Data as given in patent US9889120B2, “Combination drug therapies for cancer and methods of making and using them” (Vicus Therapeutics, LLC, priority 2016, dated 2018).

How the values were obtained:
[1] = tested on: advanced HCC; assay: Randomized investigator initiated trial: sorafenib alone (Group S) vs sorafenib after one week of propranolol and etodolac (Group SPE) (Example 2); type: in vivo, human
Experimental: Data on the use of the combination in advanced hepatocellular carcinoma patients are lacking.
Patients with advanced HCC were eligible for this randomized investigator initiated trial. Patients received propranolol (P) and etodolac (E) (or “PE”) daily for one week prior to starting sorafenib (S). PE was administered to maximize the therapeutic benefit and minimize side effects. The primary endpoint was survival.
Twenty-four patients were randomized to either sorafenib alone (Group S) or sorafenib after one week of propranolol and etodolac (Group SPE). Population: median age, 54.6 years; 74% male; BMI, 23.0; C-reactive protein (CRP), 69.3; cirrhosis (8.8%), fibrosis (50%), hepatitis B positive (85%). The patient population is summarized:
The study design is schematically illustrated in FIG. 6. Patients received PE daily for one week prior to starting S.
Dosing for PE was as follows: • 8 AM 20 mg propranolol+300 mg etodolac • 3 PM 20 mg propranolol • 8 PM 300 mg etodolac

[2] = tested on: advanced HCC; assay: Phase II multi-center, randomized, double-blind, placebo-controlled study of VT-122 or placebo on a background of stable-dose sorafenib (Example 1); type: in vivo, human; conditions: advanced HCC patients
Experimental: This was a multi-center, randomized, double-blind, double-dummy, placebo-controlled study.
VT-122 (Vicus Therapeutics, Morristown N.J.): patients entered a three week dose escalation period, with propranolol maximum at 120 mg, and etodolac maximum at 600 mg. VT-122 was administered in split doses in the morning and evening.
After the three week dose escalation period, patients were to continue therapy for four four-week cycles.
Secondary endpoint=lean body mass, overall survival, muscle function, symptom assessment.

CNC(=O)c1cc(Oc2ccc(NC(=O)Nc3ccc(Cl)c(C(F)(F)F)c3)cc2)ccn1 [Sorafenib, 4-[4-[[4-chloro-3-(trifluoromethyl)phenyl]carbamoylamino]phenoxy]-N-methyl-pyridine-2-carboxamide]
percent of patients with loss in weight ([1]; FIG. 8): 50%
12 Month Survival, Percent ([1]; N=12 per group, table): 25.0%
Hand foot skin reaction (HFS) grade 2 or 3, percent of patients ([1]; advanced HCC patients): 67%
Median survival ([1]; advanced HCC patients): 10 months
Twelve month survival ([1]; advanced HCC patients, 12 per group): 25.0%
12 Month Survival, Alive ([1]; number of patients alive of N=12): 3
Kaplan-Meier median survival (95% CI), days [2]: 267 (32, NR) days
